From US7659245B2, “Macrocylic inhibitors of hepatitis C virus” (Tibotec Pharmaceuticals Ltd, priority 2005, dated 2010) come the findings set out here.

Each structure is given as a SMILES string.

Assay [1] addresses full-length hepatitis C NS3 protease enzyme (HCV NS3/4A protease complexes) (Hepatitis C virus genotype 1a, UniProt P27958). Put plainly: Inhibition assay (enzymatic assay) of HCV NS3/4A protease. The following applies: enzyme 1 nM, 25 μM NS4A cofactor, 0.5 μM depsipeptide substrate, 30° C., competitive model. The class given is biochemical. On the procedure:
The aim of this in vitro assay is to measure the inhibition of HCV NS3/4A protease complexes by the compounds of the present invention. This assay provides an indication of how effective compounds of the present invention would be in inhibiting HCV NS3/4A proteolytic activity.
The inhibition of full-length hepatitis C NS3 protease enzyme was measured essentially as described in Poliakov, 2002 Prot Expression & Purification 25 363 371. Briefly, the hydrolysis of a depsipeptide substrate, Ac-DED(Edans)EEAbuψ[COO]ASK(Dabcyl)-NH2 (AnaSpec, San José, USA), was measured spectrofluorometrically in the presence of a peptide cofactor, KKGSVVIVGRIVLSGK (Åke Engström, Department of Medical Biochemistry and Microbiology, Uppsala University, Sweden). [Landro, 1997 #Biochem 36 9340-9348]. The enzyme (1 nM) was incubated in 50 mM HEPES, pH 7.5, 10 mM DTT, 40% glycerol, 0.1% n-octyl-D-glucoside, with 25 μM NS4A cofactor and inhibitor at 30° C. for 10 min, whereupon the reaction was initiated by addition of 0.5 μM substrate. Inhibitors were dissolved in DMSO, sonicated for 30 sec. and vortexed. The solutions were stored at −20° C. between measurements.
The final concentration of DMSO in the assay sample was adjusted to 3.3%. The rate of hydrolysis was corrected for inner filter effects according to published procedures. [Liu, 1999 Analytical Biochemistry 267 331-335]. Ki values were estimated by non-linear regression analysis (GraFit, Erithacus Software, Staines, MX, UK), using a model for competitive inhibition and a fixed value for Km (0.15 μM). A minimum of two replicates was performed for all measurements.

In assay [2] the test system is HCV replicons (Huh-7 luc/neo cells, NS3-NS5B regions of HCV type 1b). Put plainly: Replicon assay: inhibition of HCV RNA replication in Huh-Luc cells (luciferase read-out). It is filed as cell-based. The conditions noted are these: Hepatitis C virus, Huh-7, 72 h, HCV type 1b replicon, luciferase activity after three days. On the procedure: The in vitro antiviral activity against HCV of the compounds of formula (I) was tested in a cellular HCV replicon system based on Lohmann et al. (1999) Science 285:110-113, with the further modifications described by Krieger et al. (2001) Journal of Virology 75: 4614-4624 (incorporated herein by reference), which is further exemplified in the examples section. This model, while not a complete infection model for HCV, is widely accepted as the most robust and efficient model of autonomous HCV RNA replication currently available. […] It will be appreciated that it is important to distinguish between compounds that specifically interfere with HCV functions from those that exert cytotoxic or cytostatic effects in the HCV replicon model, and as a consequence cause a decrease in HCV RNA or linked reporter enzyme concentration. Assays are known in the field for the evaluation of cellular cytotoxicity based for example on the activity of mitochondrial enzymes using fluorogenic redox dyes such as resazurin. Furthermore, cellular counter screens exist for the evaluation of non-selective inhibition of linked reporter gene activity, such as firefly luciferase. Appropriate cell types can be equipped by stable transfection with a luciferase reporter gene whose expression is dependent on a constitutively active gene promoter, and such cells can be used as a counter-screen to eliminate non-selective inhibitors.
The compounds of formula (I) were examined for activity in the inhibition of HCV RNA replication in a cellular assay. […] The cellular assay was based on a bicistronic expression construct, as described by Lohmann et al. (1999) Science vol. 285 pp. 110-113 with modifications described by Krieger et al. (2001) Journal of Virology 75: 4614-4624, in a multi-target screening strategy. In essence, the method was as follows.
The assay utilized the stably transfected cell line Huh-7 luc/neo (hereafter referred to as Huh-Luc). This cell line harbors an RNA encoding a bicistronic expression construct comprising the wild type NS3-NS5B regions of HCV type 1b translated from an Internal Ribosome Entry Site (IRES) from encephalomyocarditis virus (EMCV), preceded by a reporter portion (FfL-luciferase), and a selectable marker portion (neo^R, neomycine phosphotransferase). The construct is bordered by 5′ and 3′ NTRs (non-translated regions) from HCV type 1b. Continued culture of the replicon cells in the presence of G418 (neo^R) is dependent on the replication of the HCV RNA. The stably transfected replicon cells that express HCV RNA, which replicates autonomously and to high levels, encoding inter alia luciferase, are used for screening the antiviral compounds.
The replicon cells were plated in 384 well plates in the presence of the test and control compounds which were added in various concentrations. Following an incubation of three days, HCV replication was measured by assaying luciferase activity (using standard luciferase assay substrates and reagents and a Perkin Elmer ViewLux™ ultraHTS microplate imager). Replicon cells in the control cultures have high luciferase expression in the absence of any inhibitor. The inhibitory activity of the compound on luciferase activity was monitored on the Huh-Luc cells, enabling a dose-response curve for each test compound. EC50 values were then calculated, which value represents the amount of the compound required to decrease by 50% the level of detected luciferase activity, or more specifically, the ability of the genetically linked HCV replicon RNA to replicate.

full-length hepatitis C NS3 protease enzyme (HCV NS3/4A protease complexes), sequence (P27958 1027-1657, one chain of several): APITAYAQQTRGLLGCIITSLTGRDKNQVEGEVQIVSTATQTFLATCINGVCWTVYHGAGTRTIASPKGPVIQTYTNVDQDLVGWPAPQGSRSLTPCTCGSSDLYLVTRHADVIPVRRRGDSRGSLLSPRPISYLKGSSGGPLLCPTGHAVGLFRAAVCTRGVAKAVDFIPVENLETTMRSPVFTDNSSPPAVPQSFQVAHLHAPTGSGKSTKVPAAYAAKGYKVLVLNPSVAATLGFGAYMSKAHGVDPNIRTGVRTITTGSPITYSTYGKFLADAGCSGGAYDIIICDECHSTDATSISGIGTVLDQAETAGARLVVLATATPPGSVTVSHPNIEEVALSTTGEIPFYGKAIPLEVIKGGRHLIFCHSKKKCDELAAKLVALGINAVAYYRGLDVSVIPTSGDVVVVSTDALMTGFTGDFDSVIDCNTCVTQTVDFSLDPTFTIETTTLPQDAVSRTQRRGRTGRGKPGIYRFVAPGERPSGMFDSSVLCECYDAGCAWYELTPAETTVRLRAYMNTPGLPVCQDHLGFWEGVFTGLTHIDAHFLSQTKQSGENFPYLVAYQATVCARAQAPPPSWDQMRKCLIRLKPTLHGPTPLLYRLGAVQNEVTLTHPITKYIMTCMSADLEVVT

One may read the Ki as a dissociation constant, usually derived from enzyme kinetics or from competition with a known ligand. Read a high Ki as weaker binding. Usually EC50 stands for the midpoint of the concentration-response curve. In turn, `COc1ccc2c(O[C@@H]3C[C@H]4C(=O)N[C@]5(C(=O)NS(=O)(=O)C6CC6)C[C@H]5/C=C\CCCCCNC(=O)N4C3)nc(-c3ccc(F)cc3)nc2c1C` [Compound 104, Cyclopropanesulfonic acid {18-[2-(4-fluoro-phenyl)-7-methoxy-8-methyl-quinazolin-4-yloxy]-2,15-dioxo-3,14,16-triaza-tricyclo[14.3.0.0*4,6*]nonadec-7-ene-4-carbonyl}-amide] had a Ki in assay [1] of 0.1 to 4.9 nM. Also, the EC50 in assay [2] fell in the range of 0.5 to 199 nM.
In the case of `COc1cc2nc(-c3ccccc3)nc(O[C@@H]3C[C@H]4C(=O)N[C@]5(C(=O)NS(=O)(=O)C6CC6)C[C@H]5/C=C\CCCCN(C)C(=O)[C@@H]4C3)c2cc1C` [Compound 114], the Ki in assay [1] is 0.1 to 4.9 nM. In addition, the EC50 in assay [2] is 0.5 to 199 nM.
`COc1ccc2c(O[C@@H]3C[C@H]4C(=O)N[C@]5(C(=O)NS(=O)(=O)C6CC6)C[C@H]5/C=C\CCCCN(C)C(=O)N4C3)nc(-c3cccc(C)n3)nc2c1C` [Compound 119, Cyclopropanesulfonic acid {17-[7-methoxy-8-methyl-2-(6-methyl-pyridin-2-yl)-quinazolin-4-yloxy]-13-methyl-2,14-dioxo-3,13,15-triazatricyclo[13.3.0.0*4,6*]octadec-7-ene-4-carbonyl}-amide] displayed a Ki in assay [1] of 0.1 to 4.9 nM. For the same molecule, the EC50 in assay [2] is 0.5 to 199 nM.
`COc1cc2nc(-c3ccccc3)nc(O[C@@H]3C[C@H]4C(=O)N[C@]5(C(=O)NS(=O)(=O)C6CC6)C[C@H]5/C=C\CCCCN(C)C(=O)N4C3)c2cc1C` [Compound 121, Cyclopropanesulfonic acid [17-(7-methoxy-6-methyl-2-phenyl-quinazolin-4-yloxy)-13-methyl-2,14-dioxo-3,13,15-triaza-tricyclo[13.3.0.0*4,6*]octadec-7-ene-4-carbonyl]-amide] displayed a Ki in assay [1] of 0.1 to 4.9 nM. The EC50 in assay [2] lay in the range of 0.5 to 199 nM.
In assay [1], `COc1ccc(-c2nc(O[C@@H]3C[C@H]4C(=O)N[C@]5(C(=O)NS(=O)(=O)C6CC6)C[C@H]5/C=C\CCCCN(C)C(=O)N4C3)c3ccc(OC)c(C)c3n2)cc1` [Compound 131, Cyclopropanesulfonic acid {17-[7-methoxy-2-(4-methoxy-phenyl)-8-methyl-quinazolin-4-yloxy]-13-methyl-2,14-dioxo-3,13,15-triaza-tricyclo[13.3.0.0*4,6*]-octadec-7-ene-4-carbonyl}-amide] came in with a Ki of 0.1 to 4.9 nM. Also, the EC50 in assay [2] was 0.5 to 199 nM.
The corresponding values for `COc1ccc(-c2nc(O[C@@H]3C[C@H]4C(=O)N[C@]5(C(=O)NS(=O)(=O)C6(C)CC6)C[C@H]5/C=C\CCCCN(C)C(=O)N4C3)c3ccc(OC)c(C)c3n2)cc1` [Compound 132, 1-Methyl-cyclopropanesulfonic acid {17-[7-methoxy-2-(4-methoxy-phenyl)-8-methyl-quinazolin-4-yloxy]-13-methyl-2,14-dioxo-3,13,15-triaza-tricyclo[13.3.0.0*4,6*]octadec-7-ene-4-carbonyl}-amide] are 0.1 to 4.9 nM and 0.5 to 199 nM.
In assay [1], `COc1ccc(-c2nc(O[C@@H]3C[C@H]4C(=O)N[C@]5(C(=O)NS(=O)(=O)C6CC6)C[C@H]5/C=C\CCCCN(C)C(=O)[C@@H]4C3)c3ccc(OC)c(C)c3n2)cc1` [Compound 138, Cyclopropanesulfonic acid {17-[7-methoxy-2-(4-methoxy-phenyl)-8-methyl-quinazolin-4-yloxy]-13-methyl-2,14-dioxo-3,13-diaza-tricyclo[13.3.0.0*4,6*]octadec-7-ene-4-carbonyl}-amide] yielded an inhibitory constant (Ki) of 0.1 to 4.9 nM. Besides, in assay [2], the EC50 was 0.5 to 199 nM.
`COc1ccc2c(O[C@@H]3C[C@H]4C(=O)N[C@]5(C(=O)NS(=O)(=O)C6CC6)C[C@H]5/C=C\CCCCN(C)C(=O)[C@@H]4C3)nc(-n3ccc(C(C)C)n3)nc2c1C` [Compound 147, N-[17-[2-(3-isopropylpyrazol-1-yl)-7-methoxy-8-methylquinazolin-4-yloxy]-13-methyl-2,14-dioxo-3,13-diazatricyclo[13.3.0.0^4,6]octadec-7-ene-4-carbonyl](cyclo-propyl)sulfonamide]: the Ki in assay [1] was in the range of 0.1 to 4.9 nM. Moreover, the EC50 in assay [2] fell in the range of 0.5 to 199 nM.
